One assay addresses T1, human liver cathepsin B (Homo sapiens, UniProt P07858).
T1 construct: purchased Sigma, EMDbiosciences; host or cells: human liver (as named)
Briefly: Specificity assay, cathepsin B. The class given is biochemical. Conditions: read-out: Cathepsin B activity in the specificity assays. As to the method: (§1) The specificities of compounds of the present disclosure were determined against a variety of serine proteases: human neutrophil elastase (HNE), porcine pancreatic elastase (PPE) and human pancreatic chymotrypsin and one cysteine protease: human liver cathepsin B. In all cases a 96-well plate format protocol using a fluorometric Amino-Methyl-Coumarin (AMC) substrate specific for each enzyme was used as described previously (PCT Patent Application No. WO 00/09543) with some modifications to the serine protease assays. All enzymes were purchased from Sigma, EMDbiosciences while the substrates were from Bachem, Sigma and EMDbiosciences.
(§2) Compound concentrations varied from 100 to 0.4 μM depending on their potency. The enzyme assays were each initiated by addition of substrate to enzyme-inhibitor pre-incubated for 10 min at room temperature and hydrolysis to 15% conversion as measured on cytofluor.
100 mM NaOAC (Sodium Acetate) pH 5.5, 3% DMSO, 1 mM TCEP (Tris(2-carboxyethyl)phosphine hydrochloride), 5 nM Cathepsin B (enzyme stock activated in buffer containing 20 mM TCEP before use), and 2 μM Z-FR-AMC diluted in H2O.
(§3) The percentage of inhibition was calculated using the formula: [1−((UVinh−UVblank)/(UVctl−UVblank))]×100
(§4) A non-linear curve fit was applied to the inhibition-concentration data, and the 50% effective concentration (IC50) was calculated by the use of Excel XLfit software.

Assay [1] relates to human pancreatic chymotrypsin. Briefly: Specificity assay, chymotrypsin. Conditions: read-out: Chymotrypsin activity in the specificity assays. The class given is biochemical. As to the method:
as §1, §2
50 mM Tris(hydroxymethyl)aminomethane hydrochloride (Tris-HCl) pH 8, 0.5 M Sodium Sulfate (Na2SO4), 50 mM NaCl, 0.1 mM EDTA, 3% DMSO, 0.01% Tween-20 with 5 μM LLVY-AMC and 1 nM Chymotrypsin.
as §3, §4

Assay [2] has as its system HCV replicon in HUH-7 cells. Briefly: HCV replicon FRET assay. As to conditions: Hepatitis C virus, Huh-7; read-out: EC50 value in the replicon FRET assay. The class given is cell-based, HCV strain 1b.
The target in assay [3] is T2, porcine pancreatic elastase (PPE) (Sus scrofa, UniProt P00772).
T2 construct: purchased Sigma, EMDbiosciences
T2 sequence (P00772 27-266): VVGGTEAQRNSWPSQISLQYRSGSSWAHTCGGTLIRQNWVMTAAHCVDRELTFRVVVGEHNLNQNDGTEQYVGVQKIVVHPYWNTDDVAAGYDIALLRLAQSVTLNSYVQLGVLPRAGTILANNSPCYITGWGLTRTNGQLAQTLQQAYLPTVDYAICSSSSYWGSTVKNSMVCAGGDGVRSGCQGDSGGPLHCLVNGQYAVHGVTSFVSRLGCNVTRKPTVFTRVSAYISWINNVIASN
Briefly: Specificity assay, PPE. Conditions: read-out: PPE activity in the specificity assays. The class given is biochemical. As to the method: as §1, §2
50 mM Tris-HCl, pH 8.0, 50 mM NaCl, 0.1 mM EDTA, 3% DMSO, 0.02% Tween-20, 5 μM succ-AAPV-AMC and 20 nM HNE or 8 nM PPE;
as §3, §4

Here are results for one compound from patent US8163921B2, “Hepatitis C virus inhibitors” (Bristol-Myers Squibb Company, priority 2008, dated 2012).

Molecules are shown by their SMILES.

`C=C[C@@H]1C[C@]1(NC(=O)[C@@H]1C[C@@H](Oc2ncc(OC)c3ccc(Cl)cc23)CN1C(=O)[C@@H](Nc1nc(-c2cccc(OC(F)(F)F)c2)cs1)C(C)(C)C)C(=O)NS(=O)(=O)C1CC1` [Example 68]: the results for the IC50 (at human liver cathepsin B; in assay [1]; in assay [3]) were 15 µM, 3000 nM and over 50 µM, respectively. Further, the EC50 in assay [2] was found to be 5.7 nM.
